Measurements published in patent US20220397569A1, “ASSAY FOR RAPID EVALUATION OF CHOROIDAL MAST CELL DEGRANULATION” (THE JOHNS HOPKINS UNIVERSITY, priority 2019, published 2022).
Structures can show the parent of a compound that is named as a salt. Where two headings read alike, the source gives them in different places.

How the values were obtained:
[1] = system: choroidal MC degranulation; format: in vivo, rat
Procedure: Hydrogel preparation and injection. […] All components were then mixed together by vortex and placed on ice. The final solution was loaded into an insulin syringe with a 31-gauge needle (BD Biosciences, San Jose, Calif., USA) and then, exposed to UV light (AnalytikJena, Upland, Calif., USA) for 1.5 minutes. The release and stability of the hydrogel were evaluated in vitro in PBS, pH 7.4 at 37° C.20. The amount of 48/80 released was measured using bicinchoninic acid (BCA) assay.
Alcian blue staining. After RPE removal, eyecups were fixed in methanol-formalin-acetic acid cocktail for 30 minutes and MCs were further stained with 0.05% Alcian blue (pH 5.0) in 0.02 M sodium acetate buffer for 45 minutes. Choroids were isolated after eyecups were split at the meridian and the number of non-degranulated and degranulated MCs were counted.
RPE degeneration. After the choroid/sclera eyecup was stained with anti-RPE65 Ab, 4-5 fields from the gel and non-gel areas of each choroid were captured as optimized z-stacks at 10 or 20× magnification with Zeiss LSM710. Images were exported to ImageJ software, converted into 8-bit gray color and then, thresholded. The dark area was considered degenerating RPE. To exclude the area of RPE nucleus (unstained with anti-RPE65 Ab, therefore dark) from the total dark area, particle sizes ranging from 100-infinity (pixels^2) were analyzed so nuclei were excluded. Percentage of RPE degeneration was averaged per choroid and then, quantified.
Retinal and choroidal thickness. Eight μm cryosections through the optic nerve were stained with Picrosirius Red Stain Kit (Polysciences, Inc, Warrington, Pa., USA) for 5 minutes as recommended by the manufacturer. After rinsing in hydrochloric acid and dehydrating in ethanol, sections were cover-slipped with Permount Mounting Medium (Thermo Fisher Scientific, Waltham, Mass., USA). The sections were then imaged with a Zeiss Photomic II microscope at 10×, and adjacent overlapping images of each section were taken from Ora serrata to Ora serrata. The overlapping images were then stitched using Adobe Photoshop and a panorama image was generated. The entire retina and choroid of each panorama image was precisely hand-traced and areas of the retina and choroid, respectively, were measured using ImageJ.
(§1) Electroretinogram (ERG). After overnight dark adaptation, rats were deeply anesthetized followed by pupil dilation. The rats were placed on a heated platform and full-field scotopic ERGs were elicited by white light flashes with corneal electrodes at intensities ranging from 0.01 to 1 cd·s/m^2 using the Celeris ERG system (Diagnosys LLC, Lowell, Mass., USA). The amplitude of the a- and b-waves was measured from the a-wave trough to the b-wave peak.
Volumetric and sphericity measurement. Volumetric and sphericity measurements were performed in the rats to analyze changes in shape and size of choroidal macrophages/monocytes stained with Iba1 as previously reported.^23 Briefly, randomly chosen 4-5 fields of optimized 40× magnification z-stacks per choroid captured with Zeiss LSM710 were opened in Surpass View of Imaris software and surfaces (surface detail 1.5 μm) were created, using background subtraction (0.5 μm). Voxel number filtering was applied to remove nonspecific particles in the surfaces created. Cells touching others or ones which had only a portion of the cell body visible were omitted from the volume rendering and then, the cell volume and sphericity were quantified with Imaris software.
(§2) Drug treatments. Rats were pretreated for 1-2 days prior to 48/80 hydrogel injection with either oral treatment of ketotifen fumarate (15 mg/kg) or PBS twice daily. MC tryptase inhibitor APC 366 (5 mg/kg, CAS 258932-85-8, R&D Systems, Minneapolis, Minn.)^24 or control vehicle was administered subcutaneously once daily for 8 weeks.

[2] = mice, osteoarthritis model; cited from earlier work
RBL-2H3 cells = experiment: β-hexosaminidase release assay for MC degranulation in RBL-2H3 cells; format: cell-based; details: Rattus norvegicus, RBL-2H3, 0.75 h; 48/80 10 μg/mL, ketotifen fumarate 10 μg/mL, 45 minutes
Procedure: In vitro assays. RBL-2H3 cells (CRL-2256, ATCC, Manassas, Va., USA) were used for the in vitro assay for MC degranulation. Cell degranulation was assessed by the (3-hexosaminidase release as previously described.^22 A density of 50 000 cells/well was plated overnight in a 96-well plate. Ten μg/mL of 48/80 or 10 μg/mL of ketotifen fumarate (1(2628, Millipore Sigma, St Louis, Mo., USA)+10 μg/mL of 48/80 dissolved in 100 μL serum free media (DMEM with 1.0 g/L glucose) (Thermo Fisher Scientific, Waltham, Mass.) were added to each well and incubated for 45 minutes. Then, the cells were lysed using 1% triton X-100 to determine MC β-hexosaminidase that was still cell associated. Twenty μL of the supernatant and then, the cell lysate was collected and added to 50 μL of cold 4-Nitrophenyl N-acetyl-B-d-glucosaminide (1.3 mg/mL in Citrate Buffer, pH 4.5, Millipore Sigma, St Louis, Mo., USA) to detect the amount of β-hexosaminidase released. […] The plate was read at 405 nm wavelength using a microplate reader (ELx808, BioTek, Winooski, Vt., USA). Degranulation was calculated as the percentage of β-hexosaminidase activity measured in the supernatants relative to the total amount of β-hexosaminidase activity in the cells exposed to 1% triton X-100 (100% degranulation).

[3] = Pharmacokinetic study of oral ketotifen fumarate in eye tissue (LC/MS-MS); format: in vivo, rat; details: 3 mg/kg once daily by gavage, sacrificed on the 5th day
Procedure: Pharmacokinetic study. Ketotifen fumarate quantification in plasma and eye tissue was conducted using high-performance liquid chromatography with tandem mass spectrometry (LC/MS-MS). Briefly, acetonitrile containing 0.5 μM losartan as internal standard was used to extract ketotifen from choroid and retina. Standards were prepared by spiking ketotifen fumarate in naive tissue from […] in a half log dilution series. Samples were weighed and placed in low retention microcentrifuge tubes with 5 μL extraction solution/mg tissue and pestle homogenized. Samples were vortexed followed by centrifugation at 16 000 g for 5 minutes at 4° C. The supernatants were transferred to a 96-well plate and 2 μL were injected for analysis. Samples were analyzed on an UltiMate 3000 UHPLC coupled to Q Exactive Focus orbitrap mass spectrometer (Thermo Fisher Scientific, Waltham, Mass., USA) using an Agilent EclipsePlus C18 RRHD (1.8 μm; 2.1. 100 mm) column. The mobile phase consisted of water+0.1% formic acid, and acetonitrile+0.1% formic acid. […] Samples were analyzed in positive ion mode via heated electrospray with capillary temperature set at 350° C. and a spray voltage of 3.5 kV. […] Data were acquired and quantified with Xcalibur software (Thermo Fisher Scientific, Waltham, Mass., USA).

[4] = Tolerability of oral ketotifen fumarate in rats (RPE, body weight, ERG); format: in vivo, rat
Procedure: as §1, §2

choroidal MCs [5] = experiment: Ex vivo eyecup assay after oral pretreatment of rats; design: species or system rat; details: oral 15 mg/kg twice daily for 4 days prior to enucleation; eyecups in 48/80 300 μg/ml 3 hours; compared to PBS
Procedure: (§3) Ex vivo assays. An ex vivo assay was developed to evaluate drugs quickly and efficiently. After enucleation, the anterior segments and retinas were excised and the eyecups were split at the meridian and divided in halves. Then, eyecups were incubated with 300 μg/mL of 48/80 with or without 300 μg/mL of ketotifen fumarate in serum free DMEM in a 48-well plate for 3 hours. To evaluate oral ketotifen fumarate potential to prevent MC degranulation, rats were treated orally twice daily with ketotifen fumarate (15 mg/kg) in PBS or with PBS as control for 4 days and 2 hours prior to enucleation on the 5th day. Eyes were enucleated and exposed in 48/80 serum free DMEM for 3 hours. After washing, RPE was removed and the eyecup fixed for histochemistry. The choroid was isolated from the sclera and MCs were stained for NSE activity and viewed on the Zeiss LSM710 for the autofluorescence of the reaction product. The numbers of non-degranulated and degranulated cells were counted in the whole choroid. […]
(§4) Volumetric and sphericity measurement. […] Cells touching others or ones which had only a portion of the cell body visible were omitted from the volume rendering and then, the cell volume and sphericity were quantified with Imaris software.

choroidal MCs [6] = experiment: Ex vivo eyecup assay, co-incubation with 48/80 (MC degranulation, macrophage volume and sphericity); format: cell-based; details: S/D rat eyecups, 48/80 300 μg/mL with ketotifen fumarate 300 μg/mL, 3 hours
Procedure: as §3, §4

[7] = rats; cited from earlier work
[8] = APC 366 5 mg/kg subcutaneous daily, 4 weeks
[9] = oral ketotifen fumarate 15 mg/kg twice daily, 4 weeks post 48/80-hydrogel implantation

ketotifen fumarate in choroid [3]	ketotifen fumarate in retina [3]	Structure (SMILES)	RPE degeneration [1, 8]	choroidal macrophage/monocyte activation [1, 8]	retinal and choroidal thickness ([1]; APC 366 5 mg/kg subcutaneous daily, 8 weeks)	ERG amplitude, a- and b-waves ([1]; rat, in vivo, sc, 5 mg/kg)	inflammation (transcriptional expression of IL-1β, IL-6, IL-8, CC-motif ligand 2, MMP-3) [2]	MC degranulation [1, 9]	RPE degeneration [1, 9]	retina and choroidal thickness ([1]; oral ketotifen fumarate 15 mg/kg twice daily, 8 weeks post implantation)	inhibition at 10 µg/mL (RBL-2H3 cells)	RPE morphology or viability ([4]; normal S/D rats, oral 15 mg/kg twice daily for 6 wk)	ERG amplitudes after drug treatment alone ([4]; normal rats, 6 weeks of drug treatment)	adverse effects ([4]; oral administration)	growth of the animals (body weight) ([4]; oral twice daily for 6 wk after 48/80 implantations)	MC degranulation prevented (choroidal MCs [5])	macrophage activation (choroidal MCs [5])	choroidal macrophage activation (sphericity, volume of Iba1+ cells) (choroidal MCs [6])	prevention of 48/80-induced MC degranulation (choroidal MCs [6])	non-REM and REM sleep [7]
		NC(=O)[C@@H]1CCCN1C(=O)[C@H](CCCN=C(N)N)NC(=O)c1ccc2ccccc2c1O [APC 366]	RPE degeneration was significantly inhibited	choroidal macrophage/monocyte activation was prevented	significantly less retinochoroidal thinning	reduction in ERG amplitude of both a- and b-waves was prevented	suppressed inflammation													
13 to 29 nM	12 to 52 nM	CN1CCC(=C2c3ccccc3CC(=O)c3sccc32)CC1 [ketotifen fumarate]						significantly prevented	significantly prevented RPE degeneration	retinochoroidal thinning was inhibited	56%	did not affect RPE morphology or viability	normal	did not manifest any adverse effects	nor did it affect growth of the animals	37%	significantly prevented macrophage activation	choroidal macrophage activation was prevented	prevented MC degranulation, equivalent to the level of untreated eyecups	dose dependently decreased non-rapid eye movement (REM) sleep and increased REM sleep
